Assay results: patent publication US20240225053A9 (priority 2021, published 2024)
“And” between values parts separate entries of the source, which are not always exact repeats. Equal values may be shown once. Read-outs that look alike come from different tables or passages of the source.

Experiments:
[1] = tested on: Clostridium perfringens ATCC10873; format: cell-based; parameters: key to Settling: Good: Settling effect observed; Poor: No settling effect observed; conditions: for Settling: 37° C., 8 hours
[2] = tested on: Clostridium perfringens ATCC10873; format: cell-based; conditions: for Shape: 500 mM, 8 hours; for Agglomeration (text) / Shape of the bacterial cells: Example 2 strains
[3] = tested on: Clostridium perfringens SM101 (CPE toxin producer); format: cell-based; parameters: key to Agglomeration: Good: Agglomeration effect observed; Poor: No agglomeration effect observed; conditions: 500 mM
[4] = tested on: Clostridium perfringens CNEOP004 (netB toxin producer); format: cell-based; parameters: key to Agglomeration: Good: Agglomeration effect observed; Poor: No agglomeration effect observed; conditions: 500 mM
[5] = tested on: Clostridium perfringens ATCC10873; format: cell-based; parameters: unit not given here; conditions: bacterial cells, 500 mM, 8 hours, diluted 100 times
[6] = tested on: Clostridium perfringens SM101; format: cell-based; parameters: unit not given here; conditions: bacterial cells, 500 mM, 8 hours, diluted 100 times
[7] = tested on: Clostridium perfringens CNEOP004; format: cell-based; parameters: unit not given here; conditions: bacterial cells, 500 mM, 8 hours, diluted 100 times
[8] = tested on: Lactobacillus casei ATCC393; format: cell-based; parameters: key to Agglomeration: Good: Those in which agglomeration observed under upright microscope; Poor: Those in which no agglomeration observed under upright microscope
[9] = tested on: Bifidobacterium animalis JCM1190; format: cell-based; parameters: key to Agglomeration: Good: Those in which agglomeration observed under upright microscope; Poor: Those in which no agglomeration observed under upright microscope
[10] = tested on: Salmonella enterica IAM1648; format: cell-based; parameters: key: Good: Those in which agglomeration observed under upright microscope; Poor: Those in which no agglomeration observed under upright microscope
Escherichia coli MG1655 = format: cell-based; parameters: key: Good: Those in which agglomeration observed under upright microscope; Poor: Those in which no agglomeration observed under upright microscope
[11] = tested on: Clostridium perfringens ATCC10873; format: cell-based; parameters: key: Good: Agglomeration effect observed; Poor: No agglomeration effect observed; conditions: 500 mM
[12] = tested on: Clostridium perfringens ATCC10873; format: cell-based; parameters: key: Good: Those in which agglomeration observed under upright microscope; Poor: Those in which no agglomeration observed under upright microscope; conditions: Table 4, 500 mM
[13] = tested on: mixed bacterial cells of Clostridium perfringens ATCC10873, Salmonella enterica IAM1648 and E. coli MG1655; format: cell-based; conditions: 500 mM in combination with Arabic Gum 1%; OD660 about 2.0, 37° C.
Clostridium perfringens = format: in vivo, chickens (broilers); conditions: for Dead birds Total: 500 chickens
[14] = parameters: species or system chickens (broilers, UK Chunky); conditions: in vivo
[15] = Day 0-14, BMD 55 ppm, Coated-KCl 47 ppm in feed
[16] = Day 15-28, BMD 55 ppm, Coated-KCl 47 ppm in feed
[17] = Day 29-42, BMD 55 ppm, Coated-KCl 47 ppm in feed

With `[Cl-].[Cl-].[Mg+2]` [MgCl2] the “Settling effect” value ([1]; 500 mM, absence of AG) was “did not exert a settling effect”, the “Settling effect” value ([1]; 500 mM, in combination with AG) was “exerted a settling effect” and the Settling ([1]; 500 mM, w/AG 1%) was “Good”. The Settling ([1]; 500 mM, without AG) was “Poor”, the “Concentration required for settling / at which settling was confirmed” value ([1]; absence of AG, optical density about 2.0 at 660 nm) was “over 500 mM” and the Shape ([2]; w/AG 1%) was “Rod-shaped”. The Shape ([2]; without AG) was “Rod-shaped”, the “Agglomeration (text)” value ([2]; absence of AG) was “no agglomeration was observed” and the “Shape of the bacterial cells” value ([2]; absence of AG) was “shape as bacilli remained unchanged”. For the same compound, the “Agglomeration (text)” value ([2]; coexistence with AG) was “agglomeration of Clostridium perfringens was observed”, the Shape ([3]; w/AG 1%, 8 hours) was “Rod-shaped” and the Shape ([3]; without AG, 8 hours) was “Rod-shaped”. The Agglomeration ([3]; Table 2-2, w/AG 1%, 8 hours) was “Good”, the Agglomeration ([3]; Table 2-2, without AG, 8 hours) was “Poor” and the Agglomeration ([3]; Table 3-2, w/AG 1%) was “Good”. For the same compound, the Agglomeration ([3]; Table 3-2, without AG) was “Good”, the Shape ([4]; w/AG 1%, 8 hours) was “Rod-shaped” and the Shape ([4]; without AG, 8 hours) was “Rod-shaped”. For the same compound, the Agglomeration ([4]; Table 2-3, w/AG 1%, 8 hours) was “Good”, the Agglomeration ([4]; Table 2-3, without AG, 8 hours) was “Poor” and the Agglomeration ([4]; Table 3-3, w/AG 1%) was “Good”. For the same compound, the Agglomeration ([4]; Table 3-3, without AG) was “Good”, the Zeta potential ([5]; W/AG 1%) was −12.9 and the Zeta potential ([5]; without AG) was −3.2. It also gave a Zeta potential ([6]; w/AG 1%) of −10.2, a Zeta potential ([6]; without AG) of −12.1 and a Zeta potential ([7]; w/AG 1%) of −11.8. The Zeta potential ([7]; without AG) was −12, the Agglomeration [8] was “Poor and Good” and the Agglomeration [9] was “Poor”. For the same compound, the Agglomeration [10] was “Poor and Good”, the Agglomeration (Escherichia coli MG1655) was “Poor and Good” and the Agglomeration ([11]; Table 2-1, w/AG 1%, 8 hours) was “Good”. For the same compound, the Agglomeration ([11]; Table 2-1, without AG, 8 hours) was “Poor”, the Agglomeration ([11]; Table 3-1, W/AG 1%) was “Good” and the Agglomeration ([11]; Table 3-1, without AG) was “Poor”. The Agglomeration ([12]; W/AG 1%) was “Good” and the Agglomeration ([12]; without AG) was “Poor”.
In the case of `[Cl-].[Na+]` [NaCl], the Settling ([1]; 20 mM, without AG) is reported as “Poor”, the Settling ([1]; 100 mM, without AG) is reported as “Poor” and the Settling ([1]; 500 mM, w/AG 1%) is reported as “Good”. For the same compound, the Settling ([1]; 500 mM, without AG) was “Good”, the Shape ([2]; w/AG 1%) was “Spheroidal” and the Shape ([2]; without AG) was “Spheroidal”. The “Agglomeration (text)” value ([2]; absence of AG) was “did not agglomerate”, the “Shape of the bacterial cells” value ([2]; absence of AG) was “changed from bacilli to cocci” and the “Agglomeration (text)” value ([2]; coexistence with AG) was “agglomerated in the state of cocci”. The “Agglomeration of the three types of enteric bad bacteria” value [13] was “can quickly agglomerate”, the Agglomeration ([11]; Table 2-1, w/AG 1%, 8 hours) was “Good” and the Agglomeration ([11]; Table 2-1, without AG, 8 hours) was “Poor”.
In the case of bacitracin methylene disalicylate [BMD], the “Dead birds Total” value (Clostridium perfringens; [15]) is reported as 19, the “Dead birds NE Caused” value (Clostridium perfringens; [15]) is reported as 0 and the “Dead birds Total” value (Clostridium perfringens; [16]) is reported as 10. The “Dead birds NE Caused” value (Clostridium perfringens; [16]) was 4, the “Dead birds Total” value (Clostridium perfringens; [17]) was 6 and the “Dead birds NE Caused” value (Clostridium perfringens; [17]) was 0. The “NE Caused Mortality” value (Clostridium perfringens; average, 6 weeks, BMD 55 ppm, Coated-KCl 47 ppm in feed) was 0.80, the “NE Lesion Score” value (Clostridium perfringens; day 17, three birds per pen, 0 = none to 3 = severe, average, BMD 55 ppm, Coated-KCl 47 ppm) was 0.30 and the “Mortality reduced to, as compared with Challenge Control” value (Clostridium perfringens; text b129) was 13.2%. For the same compound, the “BWG %: versus Control (Non treatment)” value [14] was 106.0% and 103.9% and 103.5% and the “Weight gain as compared with Control (Non treatment), in words” value [14] was “weight gain was improved”.
